In general, IC50 refers to the midpoint of a concentration-inhibition curve. As usually defined, the melting point is the temperature of the solid-liquid transition.

Molecules are shown by their SMILES. Where only a bound is given, the exact number is not on record here.

Data set [1] has as its target human serotonin 5-HT6 receptor (Homo sapiens, UniProt P50406). The experiment in a line: [3H]LSD binding assay for cloned 5-HT6 receptors.
In data set [2] the target is 5-HT2a (human recombinant receptor, CHO-K1) (Homo sapiens, UniProt P28223). Put plainly: Radioligand binding assay, 5-HT2a.
Data set [3] concerns the target 5-HT7 (human recombinant receptor, CHO-K1) (Homo sapiens, UniProt P34969). The experiment in a line: Radioligand binding assay, 5-HT7.
The next data set addresses D3 (hD3 receptor) (Homo sapiens, UniProt P35462). Put plainly: Radioligand binding assay, dopamine D3.
In a further data set the target is T1, D2 (hD2L receptor) (Homo sapiens, UniProt P14416).
T1 construct: purchased BioSignal Packard Inc., Montreal, Canada
Put plainly: Radioligand binding assay, dopamine D2. The conditions noted are these: [3H] spiperone 1 nM; read-out: Binding affinity IC50 D2. The method, then: (§1) Radioligand binding assays for dopamine receptor family (D1, D2 and D3) were performed according to the protocols provided by the manufacturer of receptor membranes (BioSignal Packard Inc., Montreal, Canada). The radioligands used were [^3H] spiperone (for hD2L and hD3 receptors, 1 nM) and [^3H] YM-09151-2 (hD4.2 receptor, 0.06 nM). Briefly, the buffer used in the D1, D2 and D3 receptor binding assay was 50 mM Tris-HCl (pH 7.4), containing 10 mM MgCl2 and 1 mM EDTA, or 50 mM Tris-HCl (pH 7.4), containing 5 mM MgCl2, 5 mM EDTA, 5 mM KCl, 1.5 mM CaCl2 and 120 mM NaCl. For [^3H] YM-09151-2 receptor binding assays, 50 mM Tris-HCl (pH 7.4) containing 5 mM MgCl2, 5 mM EDTA, 5 mM KCl and 1.5 mM CaCl2, was used as a buffer. Nonspecific binding was determined with haloperidol (10 μM) for D2 and D3 and clozapine (10 μM) for D4 receptors.
(§2) Competition binding studies were carried out with 7-8 concentrations of the test compound run in duplicate tubes, and isotherms from three assays were calculated by computerized nonlinear regression analysis (GraphPad Prism Program, San Diego, […]) to yield median inhibitory concentration (IC50) values.

For data set [4], the target named is T2, 5-HT2c (human recombinant receptor, CHO-K1) (Homo sapiens, UniProt P28335).
T2 sequence (P28335 33-458): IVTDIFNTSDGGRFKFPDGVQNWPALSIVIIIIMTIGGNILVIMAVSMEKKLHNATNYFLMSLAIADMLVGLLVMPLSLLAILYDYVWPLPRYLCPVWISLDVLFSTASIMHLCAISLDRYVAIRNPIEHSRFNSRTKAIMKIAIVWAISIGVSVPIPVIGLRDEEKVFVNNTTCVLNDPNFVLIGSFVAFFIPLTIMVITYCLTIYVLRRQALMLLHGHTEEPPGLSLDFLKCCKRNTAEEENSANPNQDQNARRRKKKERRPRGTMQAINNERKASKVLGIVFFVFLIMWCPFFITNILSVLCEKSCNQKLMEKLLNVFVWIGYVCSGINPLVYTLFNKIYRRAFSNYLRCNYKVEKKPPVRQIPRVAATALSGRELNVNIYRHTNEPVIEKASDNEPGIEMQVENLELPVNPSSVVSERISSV
The experiment in a line: Radioligand binding assay, 5-HT2c.

Data set [5] concerns the target T3, 5-HT1a (human recombinant receptor, CHO-K1) (Homo sapiens, UniProt P08908).
T3 sequence (P08908 1-422): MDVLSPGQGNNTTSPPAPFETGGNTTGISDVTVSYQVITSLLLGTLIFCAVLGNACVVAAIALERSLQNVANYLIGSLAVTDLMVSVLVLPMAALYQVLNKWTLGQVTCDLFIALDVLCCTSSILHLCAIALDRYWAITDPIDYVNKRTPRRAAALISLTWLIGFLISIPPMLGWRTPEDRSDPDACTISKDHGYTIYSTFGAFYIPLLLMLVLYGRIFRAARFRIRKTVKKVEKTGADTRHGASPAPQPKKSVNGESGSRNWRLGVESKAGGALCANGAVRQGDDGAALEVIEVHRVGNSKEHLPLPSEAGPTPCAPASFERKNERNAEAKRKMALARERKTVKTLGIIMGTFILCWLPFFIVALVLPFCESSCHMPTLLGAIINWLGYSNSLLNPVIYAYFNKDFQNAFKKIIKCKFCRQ
The experiment in a line: Radioligand binding assay, 5-HT1a.

The next data set concerns the target D1 receptor (Homo sapiens, UniProt P21728). Put plainly: Radioligand binding assay, dopamine D1.
For another data set, the target named is T4, D4 (hD4.2 receptor) (Homo sapiens, UniProt P21917, DEL265-296).
T4 construct: purchased BioSignal Packard Inc., Montreal, Canada
T4 sequence (P21917 with tags, fused parts or gaps DEL265-296): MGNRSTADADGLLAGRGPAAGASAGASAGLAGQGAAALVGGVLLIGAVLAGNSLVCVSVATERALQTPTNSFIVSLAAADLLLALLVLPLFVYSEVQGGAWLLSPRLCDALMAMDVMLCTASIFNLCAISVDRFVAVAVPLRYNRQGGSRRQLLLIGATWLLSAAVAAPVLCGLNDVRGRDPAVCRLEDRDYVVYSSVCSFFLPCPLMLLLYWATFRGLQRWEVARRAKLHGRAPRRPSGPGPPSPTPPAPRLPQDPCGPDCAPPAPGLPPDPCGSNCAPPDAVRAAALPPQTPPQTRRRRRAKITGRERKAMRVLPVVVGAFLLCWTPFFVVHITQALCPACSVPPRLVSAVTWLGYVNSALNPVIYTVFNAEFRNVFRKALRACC
Put plainly: Radioligand binding assay, dopamine D4. Conditions: [3H] YM-09151-2 0.06 nM; read-out: Binding affinity IC50 D4. The protocol:
as §1, §2

Data set [6] has as its target T5, HeLa cells transfected with human 5-HT6 receptor (Homo sapiens, UniProt P50406).
T5 construct: expressed in transfected cells; host or cells: HeLa
Put plainly: Serotonin-stimulated cAMP accumulation in HeLa cells (EIA). In kind it is cell-based. The conditions noted are these: for effect on serotonin-stimulated cAMP accumulation (in words): HeLa cells, FIG. 1. Background: Changes in cAMP serve as a functional read-out for many G protein-coupled receptors.

Data set [7] deals with apomorphine-induced PPI disruption. The experiment in a line: Apomorphine-induced PPI disruption in rat. The conditions noted are these: rat, 2.5, 5, 10 and 20 mg/kg i.p. alone.

Chain of human serotonin 5-HT6 receptor (P50406 whole entry): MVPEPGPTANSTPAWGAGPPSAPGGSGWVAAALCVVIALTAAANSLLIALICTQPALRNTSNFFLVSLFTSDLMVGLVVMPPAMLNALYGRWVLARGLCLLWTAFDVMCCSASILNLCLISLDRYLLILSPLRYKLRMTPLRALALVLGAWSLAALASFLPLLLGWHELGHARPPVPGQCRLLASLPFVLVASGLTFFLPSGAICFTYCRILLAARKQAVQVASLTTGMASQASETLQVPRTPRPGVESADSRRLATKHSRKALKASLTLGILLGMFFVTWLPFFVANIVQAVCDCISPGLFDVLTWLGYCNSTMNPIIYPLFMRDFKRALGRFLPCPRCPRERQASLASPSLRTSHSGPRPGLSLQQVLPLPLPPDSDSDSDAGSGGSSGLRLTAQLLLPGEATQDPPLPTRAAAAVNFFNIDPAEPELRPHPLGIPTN
T5 sequence (P50406 whole entry): as above
Chain of 5-HT7 (human recombinant receptor, CHO-K1) (P34969 whole entry): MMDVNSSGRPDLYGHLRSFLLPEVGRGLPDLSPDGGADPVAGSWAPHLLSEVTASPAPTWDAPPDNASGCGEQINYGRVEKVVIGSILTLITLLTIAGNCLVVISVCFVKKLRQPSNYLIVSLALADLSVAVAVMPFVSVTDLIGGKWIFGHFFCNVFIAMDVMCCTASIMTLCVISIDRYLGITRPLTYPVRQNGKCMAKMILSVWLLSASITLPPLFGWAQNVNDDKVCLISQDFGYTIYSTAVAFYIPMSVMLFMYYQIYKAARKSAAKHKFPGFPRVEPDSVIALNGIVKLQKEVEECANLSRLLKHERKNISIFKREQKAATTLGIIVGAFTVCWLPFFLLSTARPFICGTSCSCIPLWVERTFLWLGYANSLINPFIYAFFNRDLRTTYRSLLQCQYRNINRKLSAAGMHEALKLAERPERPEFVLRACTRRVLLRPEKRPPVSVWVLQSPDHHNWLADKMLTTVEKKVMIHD
Chain of D3 (hD3 receptor) (P35462 whole entry): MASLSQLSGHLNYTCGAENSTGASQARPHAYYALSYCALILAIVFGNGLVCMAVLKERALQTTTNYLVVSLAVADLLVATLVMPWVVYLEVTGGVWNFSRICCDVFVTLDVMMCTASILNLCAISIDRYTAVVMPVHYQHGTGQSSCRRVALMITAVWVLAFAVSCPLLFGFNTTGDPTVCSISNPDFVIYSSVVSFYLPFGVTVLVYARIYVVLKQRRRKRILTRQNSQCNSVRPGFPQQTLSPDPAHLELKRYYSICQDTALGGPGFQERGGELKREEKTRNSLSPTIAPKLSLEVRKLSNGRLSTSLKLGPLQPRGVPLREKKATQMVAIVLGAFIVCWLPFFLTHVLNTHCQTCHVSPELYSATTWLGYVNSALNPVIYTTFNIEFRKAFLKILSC
Chain of 5-HT2a (human recombinant receptor, CHO-K1) (P28223 whole entry): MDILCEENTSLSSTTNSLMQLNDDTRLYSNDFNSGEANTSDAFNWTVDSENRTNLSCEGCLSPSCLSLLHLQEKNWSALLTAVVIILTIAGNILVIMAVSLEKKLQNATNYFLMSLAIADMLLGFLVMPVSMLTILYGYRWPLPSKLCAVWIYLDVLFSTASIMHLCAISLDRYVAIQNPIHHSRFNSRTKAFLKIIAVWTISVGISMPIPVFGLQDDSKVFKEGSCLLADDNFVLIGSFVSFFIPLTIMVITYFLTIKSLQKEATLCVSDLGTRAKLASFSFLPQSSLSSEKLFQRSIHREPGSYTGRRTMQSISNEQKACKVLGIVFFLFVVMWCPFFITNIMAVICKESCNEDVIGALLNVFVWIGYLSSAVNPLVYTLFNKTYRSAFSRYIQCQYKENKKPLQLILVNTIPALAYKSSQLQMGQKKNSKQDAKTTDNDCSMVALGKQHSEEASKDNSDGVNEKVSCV
T1 sequence (P14416 whole entry): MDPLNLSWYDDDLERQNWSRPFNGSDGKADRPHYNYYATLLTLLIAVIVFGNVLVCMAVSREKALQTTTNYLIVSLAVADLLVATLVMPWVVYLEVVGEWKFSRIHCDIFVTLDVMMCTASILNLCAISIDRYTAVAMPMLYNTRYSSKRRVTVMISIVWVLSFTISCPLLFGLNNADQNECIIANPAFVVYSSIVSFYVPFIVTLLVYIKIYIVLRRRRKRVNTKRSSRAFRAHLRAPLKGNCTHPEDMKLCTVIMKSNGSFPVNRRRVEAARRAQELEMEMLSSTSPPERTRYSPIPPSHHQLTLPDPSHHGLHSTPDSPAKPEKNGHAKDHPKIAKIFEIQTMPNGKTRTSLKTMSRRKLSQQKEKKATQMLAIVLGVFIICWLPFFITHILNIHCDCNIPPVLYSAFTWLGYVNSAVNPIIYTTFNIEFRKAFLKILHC
Chain of D1 receptor (P21728 whole entry): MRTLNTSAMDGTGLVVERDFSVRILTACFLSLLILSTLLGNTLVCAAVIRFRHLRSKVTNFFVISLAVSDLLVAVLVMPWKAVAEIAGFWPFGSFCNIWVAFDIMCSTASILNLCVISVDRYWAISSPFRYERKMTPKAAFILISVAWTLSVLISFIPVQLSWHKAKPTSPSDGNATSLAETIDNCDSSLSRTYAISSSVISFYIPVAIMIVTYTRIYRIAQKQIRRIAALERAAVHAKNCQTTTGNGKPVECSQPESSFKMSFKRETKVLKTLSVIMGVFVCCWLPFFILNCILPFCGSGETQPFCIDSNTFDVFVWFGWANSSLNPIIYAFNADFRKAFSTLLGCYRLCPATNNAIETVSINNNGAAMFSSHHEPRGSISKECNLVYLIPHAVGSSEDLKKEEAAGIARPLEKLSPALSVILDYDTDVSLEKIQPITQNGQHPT

As for `O=c1c2c(N3CCNCC3)cc(Cl)cc2n(Cc2ccccc2)c(=O)n1CCc1ccccc1` [Example 70, 1-benzyl-7-chloro-3-phenethyl-5-piperazin-1-yl-1H-quinazoline-2,4-dione], the 50% inhibitory concentration (IC50) worked out at 0.6 nM in data set [1]; 401 nM in data set [2]; 7.71 µM in data set [3]; 2840 nM at D3 (hD3 receptor); 7.44 µM at D2 (hD2L receptor); 752 nM in data set [4]. Further, the results for the IC50 (in data set [5]; at D1 receptor; at D4 (hD4.2 receptor)) were 2910 nM, 5.71 µM and over 10 µM, respectively.

As for `CN1CCN(c2cc(Cl)cc3c2c(=O)n(Cc2ccc(F)cc2)c(=O)n3Cc2ccccc2)CC1` [Example 13, 1-benzyl-7-chloro-3-(4-fluoro-benzyl)-5-(4-methyl-piperazin-1-yl)-1H-quinazoline-2,4-dione], the melting point lay within 110 to 114 °C. In addition, in data set [1], the concentration for half-maximal inhibition (IC50) is 1.5 nM. Also, the IC50 in data set [2] worked out at 1390 nM. Besides, the IC50 in data set [3] worked out at 8.64 µM. For the same compound, in data set [6], the “antagonist activity compared with methiothepin” value is reported as “weaker antagonist activity than methiothepin” and the “effect on serotonin-stimulated cAMP accumulation (in words)” value was “identified as 5-HT6 receptor antagonists”. Also, on D3 (hD3 receptor), the IC50 is 2380 nM. Also, the 50% inhibitory concentration (IC50) on D2 (hD2L receptor) was over 10 µM. The IC50 in data set [4] is 1800 nM. Also, the 50% inhibitory concentration (IC50) in data set [5] was determined as 2770 nM. Besides, on D4 (hD4.2 receptor), the IC50 was over 10 µM.

The compound `O=c1c2c(N3CCNCC3)cc(Cl)cc2n(Cc2ccccc2)c(=O)n1CCCc1ccccc1` [Example 71, 1-benzyl-7-chloro-3-(3-phenyl-propyl)-5-piperazin-1-yl-1H-quinazoline-2,4-dione] registered a melting point of 62 to 68 °C. The half-maximal inhibitory concentration (IC50) in data set [1] came to 1.8 nM. Further, the IC50 in data set [2] worked out at 733 nM. Also, the 50% inhibitory concentration (IC50) in [3] worked out at 3.05 µM. At D3 (hD3 receptor), the half-maximal inhibitory concentration (IC50) is 1200 nM. At D2 (hD2L receptor), the half-inhibitory concentration (IC50) was 2.72 µM. In addition, the half-inhibitory concentration (IC50) in data set [4] came out at 1100 nM. Further, in data set [5], the half-inhibitory concentration (IC50) was 891 nM. This compound also came in with an IC50 at D1 receptor of 2.32 µM. Further, at D4 (hD4.2 receptor), the IC50 is over 10 µM.

Compound `CN1CCN(c2cc(Cl)cc3c2c(=O)n(Cc2ccccc2)c(=O)n3Cc2ccccc2)CC1` [Example 10, 1,3-dibenzyl-7-chloro-5-(4-methyl-piperazin-1yl)-1H-quinazoline-2,4-dione] came in with a melting point of 113 to 116 °C. Further, the half-inhibitory concentration (IC50) in data set [1] was 2.4 nM. In data set [2], the IC50 was 1690 nM. In addition, the half-maximal inhibitory concentration (IC50) in [3] came out at 6.78 µM. The same compound displayed a half-maximal inhibitory concentration (IC50) on D3 (hD3 receptor) of 1550 nM. Moreover, the IC50 on D2 (hD2L receptor) is 4.35 µM. Further, in [4], the 50% inhibitory concentration (IC50) is 4760 nM. Also, in data set [5], the half-maximal inhibitory concentration (IC50) turned out to be 4590 nM. In addition, the IC50 on D1 receptor was 5.56 µM. For the same compound, the 50% inhibitory concentration (IC50) at D4 (hD4.2 receptor) is over 10 µM.

The compound `CN1CCN(c2cc(Cl)cc3c2c(=O)n(CCc2ccccc2)c(=O)n3Cc2ccccc2)CC1` [Example 42, 1-benzyl-7-chloro-5-(4-methyl-piperazin-1-yl)-3-phenethyl-1H-quinazoline-2,4-dione] had a melting point of 136 to 138 °C. Further, the IC50 in [1] was 0.5 nM. Besides, the IC50 in [2] was 244 nM. The IC50 in data set [3] amounted to 7.03 µM. For the same compound, the IC50 on D3 (hD3 receptor) amounted to 638 nM. Further, the half-inhibitory concentration (IC50) at D2 (hD2L receptor) worked out at 2.5 µM. For the same compound, the IC50 in data set [4] came out at 430 nM. Also, in data set [5], the 50% inhibitory concentration (IC50) is 1300 nM. This compound showed an IC50 at D1 receptor of 3.45 µM. The concentration for half-maximal inhibition (IC50) at D4 (hD4.2 receptor) is over 10 µM.

Regarding `CN1CCN(c2cc(Cl)cc3c2c(=O)n(C)c(=O)n3Cc2ccccc2)CC1` [Example 1, 1-benzyl-7-chloro-3-methyl-5-(4-methyl-piperazin-1-yl)-1H-quinazoline-2,4-dione], the melting point lay in the range of 173 to 175 °C. The IC50 in data set [1] was 3 nM. For the same compound, in [6], the “antagonist activity compared with methiothepin” value is “weaker antagonist activity than methiothepin” and the “effect on serotonin-stimulated cAMP accumulation (in words)” value is recorded as “identified as 5-HT6 receptor antagonists”.

In the case of `C[C@@H](c1ccccc1)n1c(=O)c2c(N3CCN(C)CC3)cc(Cl)cc2n(Cc2ccccc2)c1=O` [Example 41, 1-benzyl-7-chloro-5-(4-methyl-piperazin-1yl)-3-[(S)-1-phenyl-ethyl]-1H-quinazoline-2,4-dione], the IC50 in data set [1] came out at 5 nM; in [2] it was 160 nM; in [3], 2.74 µM; at D3 (hD3 receptor) it was 362 nM; on D2 (hD2L receptor) it was 0.744 µM; in [4] it was 865 nM. The half-maximal inhibitory concentration (IC50) in data set [5] was over 10000 nM; on D1 receptor, over 10 µM; at D4 (hD4.2 receptor), over 10 µM.

`CN1CCN(c2cc(Cl)cc3c2c(=O)n(CCCc2ccccc2)c(=O)n3Cc2ccccc2)CC1` [Example 43, 1-benzyl-7-chloro-5-(4-methyl-piperazin-1-yl)-3-(3-phenyl-propyl)-1H-quinazoline-2,4-dione] gave a melting point of 55 to 63 °C. The IC50 in data set [1] was found to be 2.7 nM. In addition, in [2], the half-inhibitory concentration (IC50) amounted to 892 nM. Besides, the half-inhibitory concentration (IC50) in data set [3] was found to be 7.76 µM. This compound also had a half-inhibitory concentration (IC50) at D3 (hD3 receptor) of 1750 nM. Further, on D2 (hD2L receptor), the 50% inhibitory concentration (IC50) amounted to 5.67 µM. For the same compound, the half-maximal inhibitory concentration (IC50) in data set [4] is 1420 nM. Further, the IC50 in [5] amounted to 2640 nM. The compound further showed an IC50 on D1 receptor of 0.961 µM. The half-maximal inhibitory concentration (IC50) at D4 (hD4.2 receptor) is over 10 µM.

`C[C@@H](c1ccccc1)n1c(=O)c2c(N3CCNCC3)cc(Cl)cc2n(Cc2ccccc2)c1=O` [Example 69, 1-benzyl-7-chloro-3-[(S)-1-phenyl-ethyl]-5-piperazin-1yl-1H-quinazoline-2,4-dione]: the IC50 in [1] is 2.7 nM; in data set [2] it was 293 nM; in data set [3], 7.89 µM; on D3 (hD3 receptor), 1800 nM; at D2 (hD2L receptor), over 10 µM; in [4], 429 nM. The figures for the half-inhibitory concentration (IC50) (in [5]; at D1 receptor; on D4 (hD4.2 receptor)) were 5870 nM, 8.62 µM and over 10 µM, respectively.

`O=c1c2c(N3CCNCC3)cc(Cl)cc2n(Cc2ccccc2)c(=O)n1Cc1ccccc1Br` [Example 60, 1-benzyl-3-(2-bromo-benzyl)-7-chloro-5-piperazin-1-yl-1H-quinazoline-2,4-dione]: the melting point was in the range of 94 to 97 °C. The compound also returned an IC50 in data set [1] of 3.9 nM. For the same compound, in data set [7], the “effect of compound alone on PPI versus vehicle control” value is “no significant effects”.
